Test results published in patent US9919978B2, “Selenium-doped nano silica sol used for producing selenium-enriched rice and capable of suppressing absorption and accumulation of heavy metals in paddy rice and preparation method therefor” (GUANGDONG INSTITUTE OF ECO-ENV[…] & TECHNOLOGY, priority 2013, dated 2018).

Tested on: rice
Assay: Pot experiment: foliar application on rice grown in arsenic-contaminated soil (Example 4)
Format: in vivo, rice (variety Youyou 128)
From the text: The pot experiment for showing the effects of relieving the heavy metal poison in rice by foliar application of the selenium-doped nano-silica sol.
The soils to be tested were collected from an arsenic-contaminated rice field, in Yanhong Town, Chenghai District, Shantou City, Guangdong Province, China, the surface layer of the cultivated soils (0-10 cm) in the rice field was taken as the soil, air-dried and sieved, 10 kg of the soil were weighed and filled into barrels, wherein the basic physical and chemical properties of the soil were as follows: pH 6.12, organic matter 2.73%, total nitrogen 1.5 g/kg, total phosphorus 1.02 g/kg, total potassium 11.3 g/kg, CEC 8.75 cmol/kg, total arsenic 93.6 mg/kg, and total selenium 0.879 mg/kg.
Cultivation and treatment of rice: the rice variety was Youyou 128, the rice seed surface was disinfected for 15 minutes with 5% sodium hypochlorite solution, after washing with tap water, germination and seedling were carried out, then the uniform young seedlings were selected and transplanted. […] Each of the treatments was repeated four times, and the rices were harvested after they were matured. The dry weight of rice per pot was weighed, and the arsenic and selenium contents in rice were analyzed.

In the case of `O=[Se]([O-])[O-].[Na+].[Na+]` [1% Se, sodium selenite], the “selenium content in rice relative to that after the selenium-doped nano-silica sol with 1% selenium” value (foliar application) is reported as 66%, the “dry weight of rice grain reduced as compared with the control” value (foliar application at tillering stage, diluted 100-fold, arsenic-contaminated soil) is reported as 13.1% and the “selenium content in rice” value (foliar application, diluted 100-fold, control 0.050 mg/kg) is reported as 0.180 mg/kg. The “reduction of arsenic content in rice as compared with the control” value (foliar application, diluted 100-fold, soil total arsenic 93.6 mg/kg) was 19%.
